In experiment [1] the test system is rat PMNs. Description: Inhibition of priming of rat PMN (PMA + rrIFN-γ or rHuIL-1), Superoxide Anion (O2-) assay. It counts as cell-based. The conditions noted are these: PMA 200 ηg/mL, compound 0 to 1000 µM, superoxide anion readout. How it is done: The rat air pouch model of inflammation was used to obtain rat PMNs using 25ηg/pouch of recombinant human interleukin-1 (rHuIL-1) to elicit the cells essentially according to the method of Esser et al. [Internat. J. Tissue Reactions XI, 291 (1989)]. PMNs were incubated along with phorbol myristate acetate (PMA)(200ηg/mL), which acts as a soluble stimulus, and rrIFN-γ (1000 Units/mL), which acts as a stimulatory lymphokine, or rHuIL-1 (500 Units/mL), which acts as a stimulatory cytokine, in the presence of various concentrations of (1S,3R)-Cis-1(9-adenyl)-3-hydroxycyclopentane (0 to 1000 µM). The degree of macrophage priming was measured using the Superoxide Anion (O2-) assay as described by Edwards et al. [Science 239, 769 (1988)].

Experiment [2] deals with Rat peritoneal macrophages. Description: Inhibition of priming of rat peritoneal macrophages (opsonized zymosan + rrIFN-γ), Superoxide Anion (O2-) assay. It counts as cell-based. The conditions noted are these: opsonized zymosan 3 mg/mL, rrIFN-γ 1000 Units/mL; compound 0 to 1000 µM; superoxide anion readout; read-out: IC50 (inhibits the priming of rat macrophages in vitro). The method, then: Rat peritoneal macrophages were isolated and grown in cell culture essentially as described by Edwards et al. [Science 239, 769 (1988)]. Macrophages were incubated along with opsonized zymosan (3 mg/mL), which acts as a particulate stimulus, and recombinant rat γ-interferon (rrIFN-y)(1000Units/mL), which acts as an activating lymphokine, in the presence of various concentrations of (1S,3R)-Cis-l(9-adenyl)-3-hydroxycyclopentane (0 to 1000µM). The degree of macrophage priming was measured using the Superoxide Anion (O2-) assay as described by Edwards et al. [Science 239, 769 (1988)].

Consider 2 molecules from patent publication EP0475411B1, “Novel carbocyclic adenosine analogs useful as immunosuppressants” (Aventis Pharmaceuticals Inc., priority 1990, dated 1992).

Structures can show the parent of a compound that is named as a salt. Where two headings read alike, the source gives them in different places.

The term IC50 denotes the concentration that inhibits the measured activity by half. Regarding `Nc1ncnc2c1ncn2[C@H]1CC[C@@H](O)C1` [(1S,3R)-Cis-1-(9-adenyl)-3-hydroxycyclopentane hydrochloride], the IC50 stood at 1 nM in experiment [1] (rHuIL-1 500 Units/mL, read-out: IC50 (inhibits the rHuIL-1 priming of rat PMN in vitro)) and 1 nM in experiment [1] (rrIFN-γ 1000 Units/mL, read-out: IC50 (inhibits the rrIFN-γ priming of rat PMN in vitro)).

In the case of “(1S,3R)-Cis-l(9-adenyl)-3-hydroxy-4-cyclopentene”, the IC50 in experiment [2] was determined as 2500 nM.
